In patent US20050165032A1, “Vanilloid receptor ligands and their use in treatments” (priority 2004, published 2005):

Row | melting point [°C] | Compound
1 | 229.8 | CC(=O)Nc1nc2c(Nc3ncnc4cc(Cl)ccc34)cccc2s1 [Example 2, N-[4-(7-Chloro-quinazolin-4-ylamino)-benzothiazol-2-yl]-acetamide]
2 | 162 to 163 | CC(C)(C)c1ccc(Oc2ncnc3cc(-c4ncccc4C(F)(F)F)ccc23)cc1 [Example 17, 4-(4-tert-Butyl-phenoxy)-7-(3-trifluoromethyl-pyridin-2-yl)-quinazoline]
3 | 304 to 306 | Cl.Clc1ccc2c(Nc3ccc4c(c3)OCCO4)ncnc2c1
4 | 144.5 to 150 | FC(F)(F)c1ccc(Nc2ncnc3c2CCN(c2ncccc2C(F)(F)F)C3)cn1 [Example 10, (6-Trifluoromethyl-pyridin-3-yl)-[7-(3-trifluoromethyl-pyridin-2-yl)-5,6,7,8-tetrahydro-pyrido[3,4-d]pyrimidin-4-yl]-amine]
